Where two headings read alike, the source gives them in different places.
Columns and labels:
[1] = molecular target: T1, human VR1 (Homo sapiens, UniProt Q8NER1); experiment: Human VR1 [3H] RTX binding assay; details: for Ki: hVR1; for inhibition at 1 µM: compound at 1 μM
T1 construct: expressed in transfected cells; host or cells: HEK293
Summary of the method: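 Membranes from HEK293 cells transfected with human VR1, about 120 μg protein/ml, incubated with [3H] RTX in HEPES buffer pH 7.4 with 0.25 mg/mL fatty acid-free BSA for 60 min at 37° C. Bound radioactivity measured by scintillation counting. Non-specific binding defined with 200 nM unlabeled RTX.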

[2] = test system: carrageenan paw-induced thermal hyperalgesia; experiment: Carrageenan Paw-induced Thermal Hyperalgesia; type: in vivo, mice or rats; details: read-out: % Recovery; for inhibition in vivo at 30 mg/kg: 30 mg/kg po
[3] = molecular target: T1, human VR1; experiment: Human VR1 functional assay (intracellular Ca++, FLIPR, capsaicin challenge); type: cell-based
Experimental: The functional activity of the test compounds was determined by measuring changes in intracellular calcium concentration using a Ca^++-sensitive fluorescent dye and FLIPR™ technology.
EC50 or IC50 values were determined from dose-response studies.

[4] = 3H-RTX binding, read-out: 3H-RTX binding assay Ki hVR1
[5] = FLIPR functional assay IC50 hVR1 60 min, 60 min
[6] = hVR1, capsaicin challenge, read-out: FLIPR functional assay IC50 hVR1

T1 sequence (Q8NER1 whole entry): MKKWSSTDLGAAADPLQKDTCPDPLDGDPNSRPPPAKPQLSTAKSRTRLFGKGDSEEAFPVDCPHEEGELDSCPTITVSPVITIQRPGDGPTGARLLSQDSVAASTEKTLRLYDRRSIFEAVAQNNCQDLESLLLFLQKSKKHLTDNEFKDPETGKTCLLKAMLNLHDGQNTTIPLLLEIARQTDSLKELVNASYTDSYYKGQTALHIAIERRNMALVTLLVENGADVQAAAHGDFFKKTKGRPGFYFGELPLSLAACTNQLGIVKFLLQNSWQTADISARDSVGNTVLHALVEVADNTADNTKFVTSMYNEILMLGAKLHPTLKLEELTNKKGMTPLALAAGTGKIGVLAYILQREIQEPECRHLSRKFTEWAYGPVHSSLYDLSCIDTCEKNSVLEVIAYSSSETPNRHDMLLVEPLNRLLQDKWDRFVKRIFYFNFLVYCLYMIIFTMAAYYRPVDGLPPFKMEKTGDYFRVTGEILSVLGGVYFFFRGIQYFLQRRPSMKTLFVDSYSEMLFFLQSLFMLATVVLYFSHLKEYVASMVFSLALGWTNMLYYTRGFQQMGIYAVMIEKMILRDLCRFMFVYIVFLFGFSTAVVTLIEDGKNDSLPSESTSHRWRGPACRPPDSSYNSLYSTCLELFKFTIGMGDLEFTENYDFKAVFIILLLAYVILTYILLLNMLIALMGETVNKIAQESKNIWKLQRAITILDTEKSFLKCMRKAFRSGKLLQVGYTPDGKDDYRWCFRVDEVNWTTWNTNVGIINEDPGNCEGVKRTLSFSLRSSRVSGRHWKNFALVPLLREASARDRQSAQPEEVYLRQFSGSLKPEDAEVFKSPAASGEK

Row | Structure (SMILES) | Ki [1, 4] | IC50 [3, 5] | IC50 [3, 6] | inhibition at 1 µM ([1]; 3H-RTX binding) | other results
1 | CCC(C)(C)c1ccc(CCC(=O)Nc2cnc3ccccc3c2)cc1 [Example 14, 3-[4-(1,1-Dimethyl-propyl)-phenyl]-N-quinolin-3-yl-propionamide] | 5.24 nM | 30 nM | 36.7 nM | – | inhibition in vivo at 30 mg/kg [2]: 47%
2 | O=C(C=Cc1ccc(Cl)c(C(F)(F)F)c1)Nc1cnc2ccccc2c1 [Example 56, 3-(4-Chloro-3-trifluoromethyl-phenyl)-N-quinolin-3-yl-acrylamide] | – | – | – | – | inhibition in vivo at 10 mg/kg ([2]; 10 mg/kg po): 58%
3 | CCCCCN(C)c1ccc(CCC(=O)Nc2cnc3ccccc3c2)cc1 [Example 37, 3-[4-(Methyl-pentyl-amino)-phenyl]-N-quinolin-3-yl-propionamide] | 178 nM | 190 nM | 1100 nM | – | inhibition in vivo at 30 mg/kg [2]: 58%
4 | CC(C)(C)c1ccc(C=CC(=O)Nc2cnc3ccccc3c2Cl)cc1 [Example 82, 3-(4-tert-Butyl-phenyl)-N-(4-chloro-quinolin-3-yl)-acrylamide] | – | – | – | – | inhibition in vivo at 10 mg/kg ([2]; 10 mg/kg po): 70%
5 | CCCCCN(C)c1ccc(C(=O)Nc2cnc3ccccc3c2)cc1 [Example 154, 4-(Methyl-pentyl-amino)-N-quinolin-3-yl-benzamide] | – | – | – | – | inhibition in vivo at 10 mg/kg ([2]; 10 mg/kg sc): 83%
6 | O=C(CCc1ccc2c(c1)CCN2CC1CCCCC1)Nc1cnc2ccccc2c1 [3-(1-Cyclohexylmethyl-2,3-dihydro-1H-indol-5-yl)-N-quinolin-3-yl-propionamide] | 512 nM | – | 1200 nM | 61% | –
7 | O=C(Nc1cnc2ccccc2c1)c1ccc2c(c1)CCN2 [2,3-Dihydro-1H-indole-5-carboxylic acid quinolin-3-ylamide] | – | – | 10500 nM | 1% | –
8 | CCCCCn1ccc2cc(C(=O)Nc3cnc4ccccc4c3)ccc21 [1-Pentyl-1H-indole-5-carboxylic acid quinolin-3-ylamide] | – | 150 nM | – | 95% | Ki ([1]; 3H-RTX binding assay Ki hVR1, 3H-RTX binding): 63.1 nM
9 | CN(c1ccc(CCC(=O)Nc2cnc3ccccc3c2)cc1)C1CCCCC1 [3-{4-(Cyclohexyl-methyl-amino)-phenyl}-N-quinolin-3-yl-propionamide] | 1170 nM | – | 3900 nM | 51% | –
10 | CC(=O)N1CCc2cc(C(=O)Nc3cnc4ccccc4c3)ccc21 [1-Acetyl-2,3-dihydro-1H-indole-5-carboxylic acid quinolin-3-ylamide] | – | – | 3150 nM | 1% | –
11 | CN(CCc1ccccc1)c1ccc(C(=O)Nc2cnc3ccccc3c2)cc1 [Example 89, 4-(Methyl-phenethyl-amino)-N-quinolin-3-yl-benzamide] | 27.3 nM | 72 nM | 1900 nM | 102% | inhibition in vivo at 10 mg/kg ([2]; 10 mg/kg po): 42%
12 | CCCCCc1ccc(C(=O)Nc2cnc3ccccc3c2)s1 [5-Pentyl-thiophene-2-carboxylic acid quinolin-3-ylamide] | 647 nM | – | 900 nM | 57% | –

Second part, led by results:

Row | Ki [1, 4] | IC50 [3, 5] | IC50 [3, 6] | inhibition at 1 µM ([1]; 3H-RTX binding) | Structure (SMILES) | other results
13 | 81.5 nM | 390 nM | 260 nM | – | CN(CC1CCCCC1)c1ccc(CCC(=O)Nc2cnc3ccccc3c2)cc1 [Example 35, 3-[4-(Cyclohexylmethyl-methyl-amino)-phenyl]-N-quinolin-3-yl-propionamide] | inhibition in vivo at 20 mg/kg ([2]; 20 mg/kg po): 87%
14 | 17.6 nM | 357 nM | – | 99% | O=C(Nc1cnc2ccccc2c1)c1ccc(N2CCC(Cc3ccccc3)CC2)cc1 [Example 180, 4-(4-Benzyl-piperidin-1-yl)-N-quinolin-3-yl-benzamide] | inhibition in vivo at 10 mg/kg ([2]; 10 mg/kg po): 64%
15 | 131 nM | 400 nM | – | 91% | CN(c1ccc(C=CC(=O)Nc2cnc3ccccc3c2)cc1)C1CCCCC1 [3-{4-(Cyclohexyl-methyl-amino)-phenyl}-N-quinolin-3-yl-acrylamide] | –
16 | 24.1 nM | 106 nM | 84 nM | 98% | CCCCCN1CCc2cc(C(=O)Nc3cnc4ccccc4c3)ccc21 [Example 227, 1-Pentyl-2,3-dihydro-1H-indole-5-carboxylic acid quinolin-3-ylamide] | inhibition in vivo at 10 mg/kg ([2]; 10 mg/kg po): 52%
17 | 200 nM | – | 10000 nM | – | O=C(CCc1ccc2c(c1)CCCC2)Nc1cnc2ccccc2c1 [N-Quinolin-3-yl-3-(5,6,7,8-tetrahydro-naphthalen-2-yl)-propionamide] | –
18 | 100000 nM | – | 10000 nM | – | O=C(Nc1cnc2ccccc2c1)c1ccc(N2CCN(C(=O)Cc3ccccc3)CC2)cc1 [4-(4-Phenylacetyl-piperazin-1-yl)-N-quinolin-3-yl-benzamide] | –
19 | 83.3 nM | 100 nM | 786 nM | 97% | CCCCN(C)c1ccc(C(=O)Nc2cnc3ccccc3c2)cc1 [4-(Methyl-butyl-amino)-N-quinolin-3-yl-benzamide] | –
20 | 441 nM | 4200 nM | – | 51% | O=C(Nc1cnc2ccccc2c1)c1ccc(N(Cc2ccccc2)Cc2ccccc2)cc1 [4-Dibenzylamino-N-quinolin-3-yl-benzamide] | –

Source: patent publication US8394828B2 (Janssen Pharmaceutica, NV, priority 2003, dated 2013)
